According to the supplement of paper PMC4862054:

Columns and labels:
Conditions in all cases: incubation time: 72 h
BT-474 [1] = test: normalised response (% of control), CellTox Green; higher = less cell death (100 = DMSO, 0 = benzethonium chloride kill control)
How it was run: (§1)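 Breast cancer cell lines, seeded at 20 µl suspension per well, were incubated for 72 h in 384-well plates containing compound at 5 concentrations. These concentrations rose in 10-fold steps over a 10,000-fold range set for each compound. CellTox Green fluorescence (485/520 nm) was read, then CellTiter-Glo luminescence after 10 min at room temperature, and each plate was normalised to 0.1 % DMSO (100) and a positive kill control (0). Values are normalised signals, each at one concentration.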

BT-549 [2] = test: as above
How it was run: as §1

CAL-120 [3] = test: as above
How it was run: as §1

CAL-148 [4] = test: as above
How it was run: as §1

CAL-51 [5] = test: as above
How it was run: as §1

CAL-85-1 [6] = test: as above
How it was run: as §1

DU-4475 [7] = test: as above
How it was run: as §1

HCC1143 [8] = test: as above
How it was run: as §1

HCC1599 [9] = test: as above
How it was run: as §1

HCC1937 [10] = test: as above
How it was run: as §1

HDQ-P1 [11] = test: as above
How it was run: as §1

Hs578T [12] = test: as above
How it was run: as §1

MCF-10A [13] = test: as above
How it was run: as §1

MDA-MB-231 [14] = test: as above
How it was run: as §1

MDA-MB-436 [15] = test: as above
How it was run: as §1

MDA-MB-453 [16] = test: as above
How it was run: as §1

MDA-MB-468 [17] = test: as above
How it was run: as §1

MFM-223 [18] = test: as above
How it was run: as §1

BT-474 [19] = test: normalised response (% of control), CellTiter-Glo; higher = more viable cells (100 = DMSO, 0 = benzethonium chloride kill control)
How it was run: as §1

BT-549 [20] = test: as above
How it was run: as §1

CAL-120 [21] = test: as above
How it was run: as §1

CAL-148 [22] = test: as above
How it was run: as §1

CAL-51 [23] = test: as above
How it was run: as §1

CAL-85-1 [24] = test: as above
How it was run: as §1

DU-4475 [25] = test: as above
How it was run: as §1

HCC1143 [26] = test: as above
How it was run: as §1

HCC1599 [27] = test: as above
How it was run: as §1

HCC1937 [28] = test: as above
How it was run: as §1

HDQ-P1 [29] = test: as above
How it was run: as §1

Hs578T [30] = test: as above
How it was run: as §1

MCF-10A [31] = test: as above
How it was run: as §1

MDA-MB-231 [32] = test: as above
How it was run: as §1

MDA-MB-436 [33] = test: as above
How it was run: as §1

MDA-MB-453 [34] = test: as above
How it was run: as §1

MDA-MB-468 [35] = test: as above
How it was run: as §1

MFM-223 [36] = test: as above
How it was run: as §1

SK-BR-3 = test: as above
How it was run: as §1

Structure (SMILES)	normalised response (BT-474 [1])	normalised response (BT-549 [2])	normalised response (CAL-120 [3])	normalised response (CAL-148 [4])	normalised response (CAL-51 [5])	normalised response (CAL-85-1 [6])	normalised response (DU-4475 [7])	normalised response (HCC1143 [8])	normalised response (HCC1599 [9])	normalised response (HCC1937 [10])	normalised response (HDQ-P1 [11])	normalised response (Hs578T [12])	normalised response (MCF-10A [13])	normalised response (MDA-MB-231 [14])	normalised response (MDA-MB-436 [15])	normalised response (MDA-MB-453 [16])	normalised response (MDA-MB-468 [17])	normalised response (MFM-223 [18])	normalised response (BT-474 [19])	normalised response (BT-549 [20])	normalised response (CAL-120 [21])	normalised response (CAL-148 [22])	normalised response (CAL-51 [23])	normalised response (CAL-85-1 [24])	normalised response (DU-4475 [25])	normalised response (HCC1143 [26])	normalised response (HCC1599 [27])	normalised response (HCC1937 [28])	normalised response (HDQ-P1 [29])	normalised response (Hs578T [30])	normalised response (MCF-10A [31])	normalised response (MDA-MB-231 [32])	normalised response (MDA-MB-436 [33])	normalised response (MDA-MB-453 [34])	normalised response (MDA-MB-468 [35])	normalised response (MFM-223 [36])	normalised response (SK-BR-3)
CC(C)n1nc(-c2ccc3oc(N)nc3c2)c2c(N)ncnc21 [INK128] (10 nM)	76.1%	83.9%	100%	96.6%	99.6%	99.9%	96.8%	60.6%	95%	91.2%	78.1%	108%	108%	99.5%	94.7%	99.3%	104%	99.9%	78.9%	74.7%	82.4%	81.7%	76.8%	81.4%	86.8%	85.8%	100%	82.9%	75%	85%	89.1%	81.8%	79.1%	73.8%	81.2%	70.6%	55.6%
CC(C)(C)Cn1c(N)nc2ccc(-c3[nH]c(C(C)(C)C)nc3-c3ccc(F)cc3)nc21 (100 nM)	102%	101%	103%	102%	96.5%	112%	103%	113%	98.1%	105%	109%	105%	99.2%	72.7%	98%	102%	117%	82.9%	102%	105%	106%	100%	92.9%	99.5%	103%	110%	102%	92.8%	88.5%	102%	98.4%	98.6%	105%	101%	95.8%	104%	104%
CCCc1cc(C)[nH]c(=O)c1CNC(=O)c1cc(-c2ccnc(N3CCN(C)CC3)c2)cc2c1cnn2C(C)C [GSK343] (100 nM)	100%	98.5%	95.3%	101%	62.8%	106%	96%	91.9%	96.3%	87.8%	105%	51%	85.8%	100%	88.6%	102%	161%	99.6%	94.8%	101%	94.6%	90.1%	67.6%	91.9%	92.5%	93.2%	82.2%	94.9%	96.5%	95.5%	92.7%	97.2%	103%	90%	84.6%	95.5%	88.1%
CO[C@H](C(=O)[C@@H](O)[C@@H](C)O)[C@@H]1Cc2cc3cc(O[C@H]4C[C@@H](O[C@@H]5C[C@@H](O)[C@H](O)[C@@H](C)O5)[C@H](O)[C@@H](C)O4)c(C)c(O)c3c(O)c2C(=O)[C@H]1O[C@H]1C[C@@H](O[C@@H]2C[C@@H](O)[C@@H](O[C@@H]3C[C@](C)(O)[C@H](O)[C@@H](C)O3)[C@@H](C)O2)[C@H](O)[C@@H](C)O1 [Plicamycin] (100 nM)	99.4%	98.7%	102%	107%	85.5%	99%	102%	101%	106%	119%	94.3%	86%	93.4%	109%	96.8%	105%	131%	100%	100%	103%	103%	112%	66.4%	100%	105%	104%	99.4%	98%	99.5%	104%	108%	104%	103%	114%	105%	103%	102%
CC/C(=C(\c1ccccc1)c1ccc(OCCN(C)C)cc1)c1ccccc1 [Tamoxifen] (100 nM)	100%	99.3%	103%	106%	115%	105%	105%	113%	103%	91.9%	87.8%	97.7%	106%	91.3%	74.1%	100%	71.4%	103%	97.9%	99.2%	110%	110%	91.5%	99.9%	105%	108%	101%	100%	105%	105%	107%	107%	99.1%	102%	98%	103%	99.4%
CCc1cnn2c(NCc3ccc[n+]([O-])c3)cc(N3CCCC[C@H]3CCO)nc12 [Dinaciclib] (10 nM)	92%	95%	96.6%	93.2%	87.1%	67.9%	103%	93.7%	92%	107%	72.3%	-11%	107%	36.4%	54%	104%	82.9%	93.8%	67.7%	68.7%	88.1%	101%	65.7%	24.4%	89%	68.5%	75.8%	91.2%	71.2%	79.9%	105%	28.2%	53.5%	94.8%	90.3%	85.2%	37.4%
CC(C)C[C@H](NC(=O)[C@H](CCc1ccccc1)NC(=O)CN1CCOCC1)C(=O)N[C@@H](Cc1ccccc1)C(=O)N[C@@H](CC(C)C)C(=O)[C@@]1(C)CO1 [Carfilzomib] (10 nM)	87.4%	81.9%	91.2%	78.6%	35.9%	43.5%	100%	90.5%	111%	48.8%	96.5%	69.9%	100%	51.9%	48.3%	84.6%	-51.7%	66.1%	70.3%	6.23%	91.6%	104%	60.5%	37.6%	102%	44.4%	104%	77%	83.5%	63.5%	119%	78.8%	23.4%	40.7%	0.56%	8.07%	19.1%
COc1cc2c(cc1-c1c(C)noc1C)ncc1[nH]c(=O)n([C@H](C)c3ccccn3)c12 [I-BET151] (100 nM)	101%	93.2%	97.4%	102%	112%	107%	103%	91.9%	99.1%	102%	89.7%	108%	89.9%	78.7%	64.7%	98.3%	54%	103%	89.6%	98.8%	99.9%	110%	104%	104%	94.8%	117%	100%	98.4%	96%	102%	93.8%	99.6%	96.4%	85.7%	98.9%	103%	105%
